The results in this text go back to publication PMC11274643, “Design, Synthesis, Characterization, and Cytotoxicity of New Pyrazolylmethylene-2-thioxoimidazolidin-4-one Derivatives towards Androgen-Sensitive LNCaP Prostate Cancer Cells” (Biomolecules, 2024).

Data set [1] concerns AR-PC-3 androgen-insensitive human prostate cancer cell line. Description: MTT in vitro cytotoxicity assay, 24 h incubation. It counts as cell-based. The following applies: for IC50: Homo sapiens, MTT; for Selective Index Wi38/PC-3: ratio of IC50 values. The procedure:
(§1) The antitumor properties of pyrazolylmethylene-2-thioxoimidazolidin-4-one derivatives (3a–p) against androgen-sensitive (AR^+LNCaP; ATCC CRL-1740, Accession: CVCL_0395) and androgen-insensitive (AR^-PC-3; ATCC CRL-1435, Accession: CVCL_D5ZS) human prostate cancer cell lines in addition to normal human lung fibroblast cell line (Wi38, Accession: CVCL_2759) were evaluated by MTT assay. AR^+LNCaP, AR^-PC-3, and Wi38 cell lines were purchased frozen in liquid nitrogen from Egyptian Company for Production of Vaccines, Sera and Drugs, Cairo, Egypt (VACSERA). Tumor cell lines were stored as monolayer cultures in DMEM supplemented with 10% FBS and 1% penicillin–streptomycin. MTT assay was carried out as described previously in the literature. In brief, AR^+LNCaP, AR^-PC-3, and Wi38 cells were cultured into 96-well plates containing 100 µL of culture medium per each well. […] A control containing only culture medium was also applied. The assay was performed in triplicate. The cells were incubated overnight to grow at 37 °C in 5% CO2. After removing the growth medium, 100 µL of MTT (0.4 mg/mL of PBS) were added. After 24 h of incubation, the supernatant was removed and 100 µL of DMSO (Sigma Aldrich, Germany) were then added to each sample. Absorbance at 550 nm was measured. The formula (Reading of extract/Reading of negative control) × 100 was applied to calculate the viability percentage. The IC50 value of test compounds (3a–p) was also determined using CPE measurements of normal Wi38 cells (normal human lung fibroblast cells). The MTT assay was repeated with the test compounds (3i, 3k, 3o, 3j, 3p, and 3m) using the three cell types which were stimulated by 1 nM DHT after 48 h of incubation. IC50 values were estimated using Graph Pad Prism computer software (International Scientific Community, San Diego, CA, USA) from linear regression analysis of the concentration–response curves plotted for each tested compound [36].
(§2) In vitro cytotoxicity assay was performed to elucidate the antitumor properties of the synthesized derivatives of pyrazolylmethylene-2-thioxoimidazolidin-4-one. […] The cytotoxicity assay was performed using MTT assay as described in the Materials and Methods Section 2.4.1. The test compounds were dissolved in DMSO as stock solutions (<0.5% (v/v)) and stored in the dark at −20 °C. The human prostate cancer cells and normal human lung fibroblast cells were subjected to variable doses of the compounds for 24 h.

In data set [2] the test system is Wi38 normal human lung fibroblast cell line. Briefly: MTT in vitro cytotoxicity assay, 24 h incubation. It counts as cell-based. The following applies: WI-38. The protocol:
as §1, §2

Data set [3] deals with AR+LNCaP androgen-sensitive human prostate cancer cell line. Description: MTT in vitro cytotoxicity assay, 24 h incubation. Conditions: for IC50: Homo sapiens, MTT; for Selective Index Wi38/Lncap: ratio of IC50 values. It counts as cell-based. The protocol: as §1, §2
Data set [4] concerns AR+LNCaP cells. Description: Cell apoptosis assay (Annexin V-FITC, flow cytometry). It counts as cell-based, human. The following applies: IC50 concentration, 1 nM DHT, 24 h. The protocol:
Cell apoptosis assay was performed to ensure the efficacy of compounds 3i and 3k against the progression of AR^+LNCaP tumor cell growth in the presence of 1 nM DHT. Untreated AR^+LNCaP and Enzalutamide-treated AR^+LNCaP were used in this assay as negative and positive controls, respectively. AR^+LNCaP cells were precultured in 25 cm^2 flasks. Briefly, 1 nM DHT was then added to the growing cells. […] AR^+LNCaP cells were harvested and fixed with 70% (v/v) ethanol in FBS (Sigma-Aldrich, Germany), then maintained at 4 °C overnight. The cells were resuspended in FBS containing 0.1% (v/v) Triton X-100, 40 µg/mL […], and 0.1 mg/mL RNase then incubated in a dark chamber at 37 °C for 30 min. A flow-cytometer (Becton Dickinson, San Jose, CA, USA) supplemented with an argon ion laser at a wavelength of 488 nm was used to analyze the AR^+LNCaP cell apoptotic stages. Based on the protocol described by Ozgur et al. (2003), analysis of the data was implemented using Multicycle Software (Phoenix Flow Systems, San Diego, CA, USA; http://www.phoenixflow.com/index.html).
The active compounds 3i and 3k were further analyzed to evaluate their antitumor properties against the growth of the AR^+LNCaP prostate cancer cell line. […] Untreated AR^+LNCaP cells and Enzalutamide reference drug were also used as negative and positive controls in this assay, respectively.

Data set [5] has as its system active human caspase-3 in AR+LNCaP cells. Briefly: Detection of active Caspase 3 in AR+LNCaP cell lysates (Invitrogen Elisa kit). It counts as cell-based. Details: Caspase 3 Conc. (Average): unit not given here. The procedure:
Untreated AR^+LNCaP and Enzalutamide-treated AR^+LNCaP were used as negative and positive controls, respectively. AR^+LNCaP cells were cultured in 96-well plates at a cell density of 1 × 10^4 cells/well. Cells were then lysed with 50 µL lysis buffer/well supplemented with the Invitrogen Elisa kit for detection of active human caspase-3 (Invitrogen, Camarillo, CA, USA). Plates were frozen at −80 °C for 30 min and then thawed. The lysate was mixed with 2 Z-DEVD-R110 substrate and incubated at room temperature for 30 min. A fluorescence microplate reader (Tecan, Mainz-Kastel, Germany), was used to measure fluorescence via excitation at 496 nm and emission detection at 520 nm. Values were normalized with total protein content. Active caspase 3 accumulation was determined based on standard dilution series of Human Caspase-3 samples provided with the kit. […]

Data set [6] deals with AR+LNCaP cells. Description: DNA content at cell cycle stages (Propidium Iodide flow cytometry). It counts as cell-based, human. Conditions: IC50 concentration, 1 nM DHT. The protocol:
The amount of DNA contents of AR^+LNCaP cells stimulated with 1 nM DHT and treated with representative test compounds 3i and 3k at the different stages of the cell cycle were quantitatively evaluated as described previously. […] The Ab139418–Propidium Iodide Flow Cytometry Kit for Cell Cycle Analysis (ab139418, Abcam, Cambridge, UK) was employed for this assay following the procedures provided by the supplier.
Firstly, the ab139418-Propidium Iodide Flow Cytometry Kit for Cell Cycle Analysis (Bio vision, Boston, MA, USA) was used to quantify DNA contents at each cell cycle stage as an indicator of the cell cycle growth arrest.
A general note: In flow cytometry, cells or beads pass a laser one at a time.

Turning to `O=C1NC(=S)NC1=Cc1cn(-c2ccccc2)nc1-c1ccc(F)cc1` [Compound 3a, 5-((3-(4-Fluorophenyl)-1-phenyl-1H-pyrazol-4-yl)methylene)-2-thioxoimidazolidin-4-one], the melting point fell in the range of 186 to 188 °C. Besides, in data set [1], the midpoint of inhibition, the IC50, lay at 16.8 ± 0.34 µM and the “Selective Index Wi38/PC-3” value came to 3.8. Besides, the IC50 in data set [2] turned out to be 63.27 ± 0.18 µM. Further, in data set [3], the IC50 was 26.57 ± 0.04 µM and the “Selective Index Wi38/Lncap” value is 2.4.
Regarding `O=C1NC(=S)NC1=Cc1cn(-c2ccccc2)nc1-c1ccc(Cl)cc1` [Compound 3b, 5-((3-(4-Chlorophenyl)-1-phenyl-1H-pyrazol-4-yl)methylene)-2-thioxoimidazolidin-4-one], the melting point was in the range of 183 to 184 °C. For the same molecule, in data set [1], half-maximal inhibition (IC50) required 21.92 ± 0.12 µM and the “Selective Index Wi38/PC-3” value amounted to 0.9. For the same molecule, half-maximal inhibition in data set [2] (IC50) required 24.26 ± 0.06 µM. Besides, in data set [3], the IC50 worked out at 20.79 ± 0.06 µM and the “Selective Index Wi38/Lncap” value was 1.0.
`O=C1NC(=S)NC1=Cc1cn(-c2ccccc2)nc1-c1ccc(Br)cc1` [Compound 3c, 5-((3-(4-Bromophenyl)-1-phenyl-1H-pyrazol-4-yl)methylene)-2-thioxoimidazolidin-4-one] yielded a melting point of 193 to 195 °C. In addition, in data set [1], half-maximal inhibition (IC50) required 20.9 ± 1.12 µM and the “Selective Index Wi38/PC-3” value worked out at 4.2. In data set [2], this molecule came in with an IC50 of 87.9 ± 2.96 µM. Also, in data set [3], the IC50 came to 110 ± 2.06 µM and the “Selective Index Wi38/Lncap” value turned out to be 0.8.
As for `O=C1NC(=S)NC1=Cc1cn(-c2ccccc2)nc1-c1ccc(C(F)(F)F)cc1` [Compound 3d, 5-((1-Phenyl-3-(4-(trifluoromethyl)phenyl)-1H-pyrazol-4-yl)methylene)-2-thioxoimidazolidin-4-one], the melting point is 183 to 185 °C. Further, in data set [1], it took 177.2 ± 0.61 µM to reach half-maximal inhibition (IC50) and the “Selective Index Wi38/PC-3” value was determined as 0.3. The IC50 in data set [2] is 48.19 ± 0.21 µM. In data set [3], the IC50 is 23.5 ± 0.74 µM and the “Selective Index Wi38/Lncap” value came out at 2.0.
As to `O=C1NC(=S)NC1=Cc1cn(-c2ccccc2)nc1-c1ccccc1` [Compound 3e, 5-((1,3-Diphenyl-1H-pyrazol-4-yl)methylene)-2-thioxoimidazolidin-4-one], the melting point was 168 to 179 °C. In data set [1], 20.1 ± 0.21 µM corresponded to half-maximal inhibition (IC50) and the “Selective Index Wi38/PC-3” value is reported as 3.2. Further, the IC50 in data set [2] came to 63.24 ± 0.26 µM. Moreover, in data set [3], half-maximal inhibition (IC50) required 33.9 ± 0.12 µM and the “Selective Index Wi38/Lncap” value worked out at 1.9.
Turning to `Cc1ccc(-c2nn(-c3ccccc3)cc2C=C2NC(=S)NC2=O)cc1` [Compound 3f, 5-((1-Phenyl-3-(p-tolyl)-1H-pyrazol-4-yl)methylene)-2-thioxoimidazolidin-4-one], the melting point is 189 to 191 °C. In data set [1], the midpoint of inhibition, the IC50, lay at 20.19 ± 0.04 µM and the “Selective Index Wi38/PC-3” value came to 2.8. Further, in data set [2], the IC50 stood at 56.56 ± 0.14 µM. Moreover, in data set [3], inhibition was half-maximal at 54.19 ± 0.11 µM (IC50) and the “Selective Index Wi38/Lncap” value is on record as 1.0.
As for `Nc1ccc(-c2nn(-c3ccccc3)cc2C=C2NC(=S)NC2=O)cc1` [Compound 3g, 5-((3-(4-Aminophenyl)-1-phenyl-1H-pyrazol-4-yl)methylene)-2-thioxoimidazolidin-4-one], the melting point lay in the range of 195 to 197 °C. Also, in data set [1], the IC50 was determined as 26.8 ± 0.39 µM and the “Selective Index Wi38/PC-3” value is recorded as 2.1. The same molecule registered an IC50 in data set [2] of 56.62 ± 0.16 µM. Moreover, in data set [3], the IC50 was determined as 47.31 ± 0.18 µM and the “Selective Index Wi38/Lncap” value turned out to be 1.2.
In the case of `O=C1NC(=S)NC1=Cc1cn(-c2ccc(F)cc2)nc1-c1ccc(F)cc1` [Compound 3h, 5-((1,3-Bis(4-fluorophenyl)-1H-pyrazol-4-yl)methylene)-2-thioxoimidazolidin-4-one], the melting point fell in the range of 178 to 179 °C. In data set [1], the midpoint of inhibition, the IC50, lay at 18.8 ± 0.14 µM and the “Selective Index Wi38/PC-3” value is recorded as 1.0. In data set [2], this molecule displayed an IC50 of 20.96 ± 0.13 µM. Besides, in data set [3], the IC50 worked out at 19.48 ± 0.05 µM and the “Selective Index Wi38/Lncap” value was 1.0.
`O=C1NC(=S)NC1=Cc1cn(-c2ccc(F)cc2)nc1-c1ccccc1` [Compound 3l, 5-((1-(4-Fluorophenyl)-3-phenyl-1H-pyrazol-4-yl)methylene)-2-thioxoimidazolidin-4-one] showed a melting point of 189 to 191 °C. Further, in data set [1], half-maximal inhibition (IC50) required 15.3 ± 0.04 µM and the “Selective Index Wi38/PC-3” value was 1.8. Further, the IC50 in data set [2] came out at 26.81 ± 0.06 µM. Further, in data set [3], it took 20.8 ± 0.04 µM to reach half-maximal inhibition (IC50) and the “Selective Index Wi38/Lncap” value was 1.3.
Regarding `COc1ccc(-c2nn(-c3ccc(F)cc3)cc2C=C2NC(=S)NC2=O)cc1` [Compound 3n, 5-((1-(4-Fluorophenyl)-3-(4-methoxyphenyl)-1H-pyrazol-4-yl)methylene)-2-thioxoimidazolidin-4-one], the melting point lay within 179 to 181 °C. Besides, in data set [1], the IC50 was found to be 23.25 ± 0.08 µM and the “Selective Index Wi38/PC-3” value is given as 1.2. The IC50 in data set [2] is 26.93 ± 0.09 µM. Also, in data set [3], half-maximal inhibition (IC50) was put at 15.02 ± 0.15 µM and the “Selective Index Wi38/Lncap” value came to 1.8.
In the case of `COc1cccc2c1C(=O)c1c(O)c3c(c(O)c1C2=O)C[C@@](O)(C(=O)CO)C[C@@H]3O[C@H]1C[C@H](N)[C@H](O)[C@H](C)O1` [Doxorubicin, reference compound], the IC50 in data set [1] turned out to be 10 ± 0.18 µM; in data set [2], 15.14 ± 0.12 µM; in data set [3], 11.4 ± 0.16 µM. The “Selective Index Wi38/PC-3” value in data set [1] is listed as 1.5. For the same molecule, the “Selective Index Wi38/Lncap” value in data set [3] amounted to 1.3.
`CNC(=O)c1ccc(N2C(=S)N(c3ccc(C#N)c(C(F)(F)F)c3)C(=O)C2(C)C)cc1F` [Enzalutamide, reference compound]: in the data set with AR+LNCaP cells [4], the “Early Apoptosis (%)” value turned out to be 9.46%, the “Late Apoptosis (%)” value came out at 21.27%, the “Necrotic Cells (%)” value is on record as 3.13% and the “Total Apoptosis (%)” value stood at 33.86%. In addition, the “Caspase 3 fld” value in data set [5] (LNCaP, fold of control, supplement lab report) was 6.923. Further, in data set [5] (LNCaP, supplement lab report), the “Caspase 3” value was found to be 532.4 pg/mL. Also, in data set [5] (supplement ELISA read-out, average of two wells), the “Caspase 3 Conc. (Average)” value amounted to 532.4. For the same molecule, in the data set with AR+LNCaP cells [6], the “DNA Content (%) G0–G1” value is given as 61.02% and the “DNA Content (%) G2/M” value is recorded as 25.37%.

A word on the IC50: it is the midpoint of a concentration-inhibition curve. For orientation: melting point means the temperature of the solid-liquid transition.
